Assay results as given in patent US20210137117A1, “HERBICIDAL MIXTURES” (Bayer Aktiengesellschaft, priority 2017, published 2021).
Several values for one entry are separate records, joined by “and”; a condition that tells them apart may be missing. Equal values may be shown once.

Columns and labels:
Test in all cases: Pre-emergence action against weeds (greenhouse)
Assay type in all cases: in vivo
[1] = test system: SORHA (Sorghum halepense); conditions: for Herbicidal action SORHA: pre-emergence
Text: (§1) Depending on the trial conditions, the soil of the standard field soil is sterile or not sterile.
(§2) The amount of water used for spray application was 300l/ha.
SORHA (Sorghum halepense)—Johnsongrass
(§3) Insofar as herbicidal effects of the compositions according to the invention compared to mixtures of the prior art or compared to components applied individually against economically important mono- and dicotyledonous harmful plants were the centre of attention, the synergistic herbicidal activities were calculated using Colby's formula (cf. S. R. Colby; Weeds 15 (1967), 20-22): […]

HORVS (Hordeum vulgare) = conditions: for Herbicidal action (crop damage) HORVS: pre-emergence
Text: as §1, §2
HORVS (Hordeum vulgare)—Barley, spring
as §3

AVEFA (Avenafatua) = conditions: for Herbicidal action AVEFA: pre-emergence
Text: as §1, §2
AVEFA (Avenafatua)—Wild oat
as §3

EMEAU (Emex australis) = conditions: for Herbicidal action EMEAU: pre-emergence
Text: as §1, §2
EMEAU (Emex australis)—Cathead
as §3

[2] = test system: LOLRI—resistant (Lolium rigidum); conditions: for Herbicidal action LOLRI resistant: pre-emergence
Text: as §1, §2
LOLRI—resistant (Lolium rigidum) resistant to herbicidally active compounds of the HRAC groups A and B; population mixture of field origin having increased metabolic resistance (IMR) and some target site resistance (TSR).
as §3

CENCY (Centaurea cyanus) = conditions: for Herbicidal action CENCY: pre-emergence
Text: as §1, §2
CENCY (Centaurea cyanus)—Cornflower
as §3

BRSNW (Brassica napus) = conditions: for Herbicidal action BRSNW: pre-emergence
Text: as §1, §2
BRSNW (Brassica napus)—Rape, winter
as §3

[3] = test system: RAPRA (Raphanus raphanistrum); conditions: for Herbicidal action RAPRA: pre-emergence
Text: as §1, §2
RAPRA (Raphanus raphanistrum)—Charlock, jointed
as §3

PAPRH (Papaver rhoeas) = test system: PAPRH (Papaver rhoeas)
Text: as §1, §2
PAPRH (Papaver rhoeas)—Poppy, common
as §3

[4] = test system: LOLRI—sensitive (Lolium rigidum); conditions: for Herbicidal action LOLRI sensitive: pre-emergence
Text: as §1, §2
LOLRI—sensitive (Lolium rigidum) sensitive to customary herbicidally active compounds.
as §3

[5] = test system: TRZAS (Triticum aestivum); conditions: for Herbicidal action (crop damage) TRZAS: pre-emergence
Text: as §1, §2
TRZAS (Triticum aestivum)—Wheat, spring
as §3

[6] = test system: ALOMY—resistant (Alopecurus myosuroides); conditions: for Herbicidal action ALOMY resistant: pre-emergence
Text: as §1, §2
ALOMY—resistant (Alopecurus myosuroides) resistant to herbicidally active compounds of the HRAC groups A and B; population mixture of field origin having increased metabolic resistance (IMR) and some target site resistance (TSR).
as §3

[7] = test system: ALOMY—sensitive (Alopecurus myosuroides); conditions: for Herbicidal action ALOMY sensitive: pre-emergence
Text: as §1, §2
ALOMY—sensitive (Alopecurus myosuroides) sensitive to customary herbicidally active compounds.
as §3

[8] = test system: VERHE (Veronica hederaefolia); conditions: for Herbicidal action VERHE: pre-emergence
Text: as §1, §2
VERHE (Veronica hederaefolia)—Speedwell, iveleaf
as §3

BROST (Bromus sterilis) = conditions: for Herbicidal action BROST: pre-emergence
Text: as §1, §2
BROST (Bromus sterilis)—Bromegrass, barren
as §3

Cc1ccccc1CO[C@@H]1C[C@@]2(C(C)C)CC[C@]1(C)O2 (racemic) [Cinmethylin, (+/−)-2-exo-(2-methylbenzyloxy)-1-methyl-4-isopropyl-7-oxabicyclo[2.2.1]heptane]
30: Herbicidal action (crop damage) HORVS (HORVS (Hordeum vulgare); dose 50 g AS/ha) | Herbicidal action (crop damage) TRZAS ([5]; dose 50 g AS/ha)
60%: herbicidal action ([6]; 25 g AS/ha)
90: Herbicidal action LOLRI sensitive ([4]; dose 50 g AS/ha)
75%: herbicidal action ([5]; 250 g AS/ha)
85% and 100%: herbicidal action ([2]; 50 g AS/ha)
50%: herbicidal action (AVEFA (Avenafatua); 250 g AS/ha) | herbicidal action (BROST (Bromus sterilis); 50 g AS/ha)
80: Herbicidal action ALOMY sensitive ([7]; dose 50 g AS/ha)
70: Herbicidal action ALOMY resistant ([6]; dose 50 g AS/ha)
100: Herbicidal action LOLRI resistant ([2]; dose 50 g AS/ha)
30%: herbicidal action (HORVS (Hordeum vulgare); 50 g AS/ha) | herbicidal action (CENCY (Centaurea cyanus); 250 g AS/ha) | herbicidal action ([3]; 250 g AS/ha) | herbicidal action ([5]; 50 g AS/ha)
0: Herbicidal action AVEFA (AVEFA (Avenafatua); dose 50 g AS/ha) | Herbicidal action EMEAU (EMEAU (Emex australis); dose 50 g AS/ha) | Herbicidal action CENCY (CENCY (Centaurea cyanus); dose 50 g AS/ha) | Herbicidal action BRSNW (BRSNW (Brassica napus); dose 50 g AS/ha) | Herbicidal action RAPRA ([3]; dose 50 g AS/ha) | Herbicidal action VERHE ([8]; dose 50 g AS/ha)
100%: herbicidal action ([1]; 500 g AS/ha) | herbicidal action ([2]; 100 g AS/ha) | herbicidal action ([2]; 250 g AS/ha) | herbicidal action ([2]; 500 g AS/ha) | herbicidal action ([4]; 100 g AS/ha) | herbicidal action ([4]; 250 g AS/ha) | herbicidal action ([4]; 500 g AS/ha) | herbicidal action ([6]; 500 g AS/ha) | herbicidal action ([7]; 250 g AS/ha) | herbicidal action ([7]; 500 g AS/ha) | herbicidal action (BROST (Bromus sterilis); 100 g AS/ha) | herbicidal action (BROST (Bromus sterilis); 250 g AS/ha) | herbicidal action (BROST (Bromus sterilis); 500 g AS/ha)
0%: herbicidal action (HORVS (Hordeum vulgare); 10 g AS/ha) | herbicidal action (HORVS (Hordeum vulgare); 25 g AS/ha) | herbicidal action (AVEFA (Avenafatua); 10 g AS/ha) | herbicidal action (AVEFA (Avenafatua); 25 g AS/ha) | herbicidal action (AVEFA (Avenafatua); 50 g AS/ha) | herbicidal action (EMEAU (Emex australis); 10 g AS/ha) | herbicidal action (EMEAU (Emex australis); 25 g AS/ha) | herbicidal action (EMEAU (Emex australis); 50 g AS/ha) | herbicidal action (EMEAU (Emex australis); 100 g AS/ha) | herbicidal action (EMEAU (Emex australis); 250 g AS/ha) | herbicidal action (EMEAU (Emex australis); 500 g AS/ha) | herbicidal action ([2]; 10 g AS/ha) | herbicidal action (CENCY (Centaurea cyanus); 50 g AS/ha) | herbicidal action (CENCY (Centaurea cyanus); 100 g AS/ha) | herbicidal action (BRSNW (Brassica napus); 10 g AS/ha) | herbicidal action (BRSNW (Brassica napus); 25 g AS/ha) | herbicidal action (BRSNW (Brassica napus); 50 g AS/ha) | herbicidal action (BRSNW (Brassica napus); 100 g AS/ha) | herbicidal action (BRSNW (Brassica napus); 250 g AS/ha) | herbicidal action ([3]; 10 g AS/ha) | herbicidal action ([3]; 25 g AS/ha) | herbicidal action ([3]; 50 g AS/ha) | herbicidal action ([3]; 100 g AS/ha) | herbicidal action (PAPRH (Papaver rhoeas); 10 g AS/ha) | herbicidal action (PAPRH (Papaver rhoeas); 25 g AS/ha) | herbicidal action (PAPRH (Papaver rhoeas); 50 g AS/ha) | herbicidal action ([4]; 10 g AS/ha) | herbicidal action ([5]; 10 g AS/ha) | herbicidal action ([5]; 25 g AS/ha) | herbicidal action ([6]; 10 g AS/ha) | herbicidal action ([7]; 10 g AS/ha) | herbicidal action ([8]; 10 g AS/ha) | herbicidal action ([8]; 25 g AS/ha) | herbicidal action ([8]; 50 g AS/ha) | herbicidal action ([8]; 100 g AS/ha) | herbicidal action ([8]; 250 g AS/ha) | herbicidal action ([8]; 500 g AS/ha) | herbicidal action (BROST (Bromus sterilis); 10 g AS/ha)
90%: herbicidal action ([4]; 50 g AS/ha) | herbicidal action ([5]; 500 g AS/ha) | herbicidal action ([6]; 250 g AS/ha) | herbicidal action ([7]; 100 g AS/ha)
40%: herbicidal action (HORVS (Hordeum vulgare); 100 g AS/ha) | herbicidal action ([3]; 500 g AS/ha) | herbicidal action ([5]; 100 g AS/ha)
25%: herbicidal action (AVEFA (Avenafatua); 100 g AS/ha)
65: Herbicidal action SORHA ([1]; dose 50 g AS/ha)
70%: herbicidal action ([1]; 100 g AS/ha) | herbicidal action (HORVS (Hordeum vulgare); 500 g AS/ha) | herbicidal action (AVEFA (Avenafatua); 500 g AS/ha) | herbicidal action ([2]; 25 g AS/ha) | herbicidal action ([4]; 25 g AS/ha) | herbicidal action ([6]; 50 g AS/ha) | herbicidal action ([6]; 100 g AS/ha)
65%: herbicidal action ([1]; 50 g AS/ha) | herbicidal action (HORVS (Hordeum vulgare); 250 g AS/ha)
10%: herbicidal action (BRSNW (Brassica napus); 500 g AS/ha)
20%: herbicidal action (BROST (Bromus sterilis); 25 g AS/ha)
80%: herbicidal action ([1]; 250 g AS/ha) | herbicidal action (CENCY (Centaurea cyanus); 500 g AS/ha) | herbicidal action ([7]; 25 g AS/ha) | herbicidal action ([7]; 50 g AS/ha)
50: Herbicidal action BROST (BROST (Bromus sterilis); dose 50 g AS/ha)

CCOC(=O)C1=NN(c2ccc(Cl)cc2Cl)C(C)(C(=O)OCC)C1 (stereo not shown) [Mefenpyr, ethyl 1-(2,4-dichlorophenyl)-5-(ethoxycarbonyl)-5-methyl-2-pyrazoline-3-carboxylate]
0%: herbicidal action ([1]; 300 g AS/ha) | herbicidal action (HORVS (Hordeum vulgare); 300 g AS/ha) | herbicidal action (AVEFA (Avenafatua); 300 g AS/ha) | herbicidal action (EMEAU (Emex australis); 300 g AS/ha) | herbicidal action ([2]; 300 g AS/ha) | herbicidal action (CENCY (Centaurea cyanus); 300 g AS/ha) | herbicidal action (BRSNW (Brassica napus); 300 g AS/ha) | herbicidal action ([3]; 300 g AS/ha) | herbicidal action ([4]; 300 g AS/ha) | herbicidal action ([5]; 300 g AS/ha) | herbicidal action ([6]; 300 g AS/ha) | herbicidal action ([7]; 300 g AS/ha) | herbicidal action ([8]; 300 g AS/ha) | herbicidal action (BROST (Bromus sterilis); 300 g AS/ha)
0: Herbicidal action SORHA ([1]; dose 10 g AS/ha) | Herbicidal action SORHA ([1]; dose 100 g AS/ha) | Herbicidal action (crop damage) HORVS (HORVS (Hordeum vulgare); dose 10 g AS/ha) | Herbicidal action (crop damage) HORVS (HORVS (Hordeum vulgare); dose 100 g AS/ha) | Herbicidal action AVEFA (AVEFA (Avenafatua); dose 10 g AS/ha) | Herbicidal action AVEFA (AVEFA (Avenafatua); dose 100 g AS/ha) | Herbicidal action EMEAU (EMEAU (Emex australis); dose 10 g AS/ha) | Herbicidal action EMEAU (EMEAU (Emex australis); dose 100 g AS/ha) | Herbicidal action LOLRI resistant ([2]; dose 10 g AS/ha) | Herbicidal action LOLRI resistant ([2]; dose 100 g AS/ha) | Herbicidal action CENCY (CENCY (Centaurea cyanus); dose 10 g AS/ha) | Herbicidal action CENCY (CENCY (Centaurea cyanus); dose 100 g AS/ha) | Herbicidal action BRSNW (BRSNW (Brassica napus); dose 10 g AS/ha) | Herbicidal action BRSNW (BRSNW (Brassica napus); dose 100 g AS/ha) | Herbicidal action RAPRA ([3]; dose 10 g AS/ha) | Herbicidal action RAPRA ([3]; dose 100 g AS/ha) | Herbicidal action LOLRI sensitive ([4]; dose 10 g AS/ha) | Herbicidal action LOLRI sensitive ([4]; dose 100 g AS/ha) | Herbicidal action (crop damage) TRZAS ([5]; dose 10 g AS/ha) | Herbicidal action (crop damage) TRZAS ([5]; dose 100 g AS/ha) | Herbicidal action ALOMY resistant ([6]; dose 10 g AS/ha) | Herbicidal action ALOMY resistant ([6]; dose 100 g AS/ha) | Herbicidal action ALOMY sensitive ([7]; dose 10 g AS/ha) | Herbicidal action ALOMY sensitive ([7]; dose 100 g AS/ha) | Herbicidal action VERHE ([8]; dose 10 g AS/ha) | Herbicidal action VERHE ([8]; dose 100 g AS/ha) | Herbicidal action BROST (BROST (Bromus sterilis); dose 10 g AS/ha) | Herbicidal action BROST (BROST (Bromus sterilis); dose 100 g AS/ha)
